Test results published in article PMC8401933 (Molecules, 2021).

Columns and labels:
PIP5K1A = molecular target: T1, PIP5K1A (Homo sapiens, UniProt Q99755); test: KINOMEscan binding; details: read-out: Percent Control
T1 construct: purchased Eurofins DiscoverX KINOMEscan

[1] = molecular target: T2, JAK1(JH2domain-pseudokinase) (Homo sapiens, UniProt P23458); test: KINOMEscan binding; details: read-out: Percent Control
T2 construct: JAK1(JH2domain-pseudokinase); purchased Eurofins DiscoverX KINOMEscan

LATS2 = molecular target: T3, LATS2 (Homo sapiens, UniProt Q9NRM7); test: KINOMEscan binding; details: read-out: Percent Control
T3 construct: purchased Eurofins DiscoverX KINOMEscan

CSNK1E = molecular target: T4, CSNK1E (Homo sapiens, UniProt P49674); test: KINOMEscan binding; details: read-out: Percent Control
T4 construct: purchased Eurofins DiscoverX KINOMEscan

CASK = molecular target: T5, CASK (Homo sapiens, UniProt O14936); test: KINOMEscan binding; details: read-out: Percent Control
T5 construct: purchased Eurofins DiscoverX KINOMEscan

PDPK1 = molecular target: T6, PDPK1 (Homo sapiens, UniProt O15530); test: KINOMEscan binding; details: read-out: Percent Control
T6 construct: purchased Eurofins DiscoverX KINOMEscan

SRMS = molecular target: T7, SRMS (Homo sapiens, UniProt Q9H3Y6); test: KINOMEscan binding; details: read-out: Percent Control
T7 construct: purchased Eurofins DiscoverX KINOMEscan

MKK7 = molecular target: T8, MKK7 (Homo sapiens, UniProt O14733); test: KINOMEscan binding; details: read-out: Percent Control
T8 construct: purchased Eurofins DiscoverX KINOMEscan

AURKA = molecular target: T9, AURKA (Homo sapiens, UniProt O14965); test: KINOMEscan binding; details: read-out: Percent Control
T9 construct: purchased Eurofins DiscoverX KINOMEscan

VEGFR2 = molecular target: T10, VEGFR2 (Homo sapiens, UniProt P35968); test: KINOMEscan binding; details: read-out: Percent Control
T10 construct: purchased Eurofins DiscoverX KINOMEscan

TSSK3 = molecular target: T11, TSSK3 (Homo sapiens, UniProt Q96PN8); test: KINOMEscan binding; details: read-out: Percent Control
T11 construct: purchased Eurofins DiscoverX KINOMEscan

FRK = molecular target: T12, FRK (Homo sapiens, UniProt P42685); test: KINOMEscan binding; details: read-out: Percent Control
T12 construct: purchased Eurofins DiscoverX KINOMEscan

JNK3 = molecular target: T13, JNK3 (Homo sapiens, UniProt P53779); test: KINOMEscan binding; details: read-out: Percent Control
T13 construct: purchased Eurofins DiscoverX KINOMEscan

FGR = molecular target: T14, FGR (Homo sapiens, UniProt P09769); test: KINOMEscan binding; details: read-out: Percent Control
T14 construct: purchased Eurofins DiscoverX KINOMEscan

MST1 = molecular target: T15, MST1 (Homo sapiens, UniProt Q13043); test: KINOMEscan binding; details: read-out: Percent Control
T15 construct: purchased Eurofins DiscoverX KINOMEscan

PIK3CA(H1047L) = molecular target: T16, PIK3CA(H1047L) (Homo sapiens, UniProt P42336, H1047L); test: KINOMEscan binding; details: read-out: Percent Control
T16 construct: purchased Eurofins DiscoverX KINOMEscan

WEE2 = molecular target: T17, WEE2 (Homo sapiens, UniProt P0C1S8); test: KINOMEscan binding; details: read-out: Percent Control
T17 construct: purchased Eurofins DiscoverX KINOMEscan

PKNB(M.tuberculosis) = molecular target: T18, PKNB(M.tuberculosis) (Mycobacterium tuberculosis, UniProt P9WI81); test: KINOMEscan binding; details: read-out: Percent Control
T18 construct: purchased Eurofins DiscoverX KINOMEscan

NEK9 = molecular target: T19, NEK9 (Homo sapiens, UniProt Q8TD19); test: KINOMEscan binding; details: read-out: Percent Control
T19 construct: purchased Eurofins DiscoverX KINOMEscan

MEK2 = molecular target: T20, MEK2 (Homo sapiens, UniProt P36507); test: KINOMEscan binding; details: read-out: Percent Control
T20 construct: purchased Eurofins DiscoverX KINOMEscan

MAP4K4 = molecular target: T21, MAP4K4 (Homo sapiens, UniProt O95819); test: KINOMEscan binding; details: read-out: Percent Control
T21 construct: purchased Eurofins DiscoverX KINOMEscan

MEK6 = molecular target: T22, MEK6 (Homo sapiens, UniProt P52564); test: KINOMEscan binding; details: read-out: Percent Control
T22 construct: purchased Eurofins DiscoverX KINOMEscan

PHKG1 = molecular target: T23, PHKG1 (Homo sapiens, UniProt Q16816); test: KINOMEscan binding; details: read-out: Percent Control
T23 construct: purchased Eurofins DiscoverX KINOMEscan

QSK = molecular target: T24, QSK (Homo sapiens, UniProt Q9Y2K2); test: KINOMEscan binding; details: read-out: Percent Control
T24 construct: purchased Eurofins DiscoverX KINOMEscan

CSF1R-autoinhibited = molecular target: T25, CSF1R-autoinhibited (Homo sapiens, UniProt P07333); test: KINOMEscan binding; details: read-out: Percent Control
T25 construct: purchased Eurofins DiscoverX KINOMEscan

NEK7 = molecular target: T26, NEK7 (Homo sapiens, UniProt Q8TDX7); test: KINOMEscan binding; details: read-out: Percent Control
T26 construct: purchased Eurofins DiscoverX KINOMEscan

STK36 = molecular target: T27, STK36 (Homo sapiens, UniProt Q9NRP7); test: KINOMEscan binding; details: read-out: Percent Control
T27 construct: purchased Eurofins DiscoverX KINOMEscan

MARK3 = molecular target: T28, MARK3 (Homo sapiens, UniProt P27448); test: KINOMEscan binding; details: read-out: Percent Control
T28 construct: purchased Eurofins DiscoverX KINOMEscan

BRSK1 = molecular target: T29, BRSK1 (Homo sapiens, UniProt Q8TDC3); test: KINOMEscan binding; details: read-out: Percent Control
T29 construct: purchased Eurofins DiscoverX KINOMEscan

INSR = molecular target: T30, INSR (Homo sapiens, UniProt P06213); test: KINOMEscan binding; details: read-out: Percent Control
T30 construct: purchased Eurofins DiscoverX KINOMEscan

PCTK2 = molecular target: T31, PCTK2 (Homo sapiens, UniProt Q00537); test: KINOMEscan binding; details: read-out: Percent Control
T31 construct: purchased Eurofins DiscoverX KINOMEscan

FGFR1 = molecular target: T32, FGFR1 (Homo sapiens, UniProt P11362); test: KINOMEscan binding; details: read-out: Percent Control
T32 construct: purchased Eurofins DiscoverX KINOMEscan

HCK = molecular target: T33, HCK (Homo sapiens, UniProt P08631); test: KINOMEscan binding; details: read-out: Percent Control
T33 construct: purchased Eurofins DiscoverX KINOMEscan

SGK = molecular target: T34, SGK (Homo sapiens, UniProt O00141); test: KINOMEscan binding; details: read-out: Percent Control
T34 construct: purchased Eurofins DiscoverX KINOMEscan

DMPK = molecular target: T35, DMPK (Homo sapiens, UniProt Q09013); test: KINOMEscan binding; details: read-out: Percent Control
T35 construct: purchased Eurofins DiscoverX KINOMEscan

PKAC-beta = molecular target: T36, PKAC-beta (Homo sapiens, UniProt P22694); test: KINOMEscan binding; details: read-out: Percent Control
T36 construct: purchased Eurofins DiscoverX KINOMEscan

CSF1R = molecular target: T37, CSF1R (Homo sapiens, UniProt P07333); test: KINOMEscan binding; details: read-out: Percent Control
T37 construct: purchased Eurofins DiscoverX KINOMEscan

HIPK3 = molecular target: T38, HIPK3 (Homo sapiens, UniProt Q9H422); test: KINOMEscan binding; details: read-out: Percent Control
T38 construct: purchased Eurofins DiscoverX KINOMEscan

ICK = molecular target: T39, ICK (Homo sapiens, UniProt Q9UPZ9); test: KINOMEscan binding; details: read-out: Percent Control
T39 construct: purchased Eurofins DiscoverX KINOMEscan

PAK7 = molecular target: T40, PAK7 (Homo sapiens, UniProt Q9P286); test: KINOMEscan binding; details: read-out: Percent Control
T40 construct: purchased Eurofins DiscoverX KINOMEscan

PFPK5(P.falciparum) = molecular target: T41, PFPK5(P.falciparum) (Plasmodium falciparum, UniProt P61075); test: KINOMEscan binding; details: read-out: Percent Control
T41 construct: purchased Eurofins DiscoverX KINOMEscan

PIM1 = molecular target: T42, PIM1 (Homo sapiens, UniProt P11309); test: KINOMEscan binding; details: read-out: Percent Control
T42 construct: purchased Eurofins DiscoverX KINOMEscan

PRKD3 = molecular target: T43, PRKD3 (Homo sapiens, UniProt O94806); test: KINOMEscan binding; details: read-out: Percent Control
T43 construct: purchased Eurofins DiscoverX KINOMEscan

ROCK1 = system: ROCK1; set-up: method as in PMID 18832915; details: cited from earlier work

T33 sequence (P08631 whole entry): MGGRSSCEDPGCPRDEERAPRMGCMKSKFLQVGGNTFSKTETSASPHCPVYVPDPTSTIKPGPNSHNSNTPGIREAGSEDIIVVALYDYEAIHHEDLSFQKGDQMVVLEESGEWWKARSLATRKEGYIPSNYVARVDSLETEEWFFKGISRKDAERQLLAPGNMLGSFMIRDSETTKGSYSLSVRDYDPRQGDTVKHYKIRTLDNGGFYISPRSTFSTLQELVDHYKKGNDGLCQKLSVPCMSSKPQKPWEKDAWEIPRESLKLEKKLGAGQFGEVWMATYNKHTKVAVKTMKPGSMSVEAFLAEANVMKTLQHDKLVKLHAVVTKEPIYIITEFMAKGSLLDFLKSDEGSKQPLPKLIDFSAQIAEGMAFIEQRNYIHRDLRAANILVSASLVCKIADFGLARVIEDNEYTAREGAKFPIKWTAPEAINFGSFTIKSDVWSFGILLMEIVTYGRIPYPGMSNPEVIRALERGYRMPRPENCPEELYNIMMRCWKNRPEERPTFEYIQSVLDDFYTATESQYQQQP
T22 sequence (P52564 whole entry): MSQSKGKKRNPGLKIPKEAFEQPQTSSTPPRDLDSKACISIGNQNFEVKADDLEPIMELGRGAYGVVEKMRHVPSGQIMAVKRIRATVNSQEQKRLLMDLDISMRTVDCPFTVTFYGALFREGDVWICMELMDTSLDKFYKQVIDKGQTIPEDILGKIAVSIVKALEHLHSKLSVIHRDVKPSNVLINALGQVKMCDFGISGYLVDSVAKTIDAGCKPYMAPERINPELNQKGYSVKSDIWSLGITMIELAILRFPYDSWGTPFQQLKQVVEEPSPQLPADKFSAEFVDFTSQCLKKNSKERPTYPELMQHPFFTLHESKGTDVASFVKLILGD
T43 sequence (O94806 whole entry): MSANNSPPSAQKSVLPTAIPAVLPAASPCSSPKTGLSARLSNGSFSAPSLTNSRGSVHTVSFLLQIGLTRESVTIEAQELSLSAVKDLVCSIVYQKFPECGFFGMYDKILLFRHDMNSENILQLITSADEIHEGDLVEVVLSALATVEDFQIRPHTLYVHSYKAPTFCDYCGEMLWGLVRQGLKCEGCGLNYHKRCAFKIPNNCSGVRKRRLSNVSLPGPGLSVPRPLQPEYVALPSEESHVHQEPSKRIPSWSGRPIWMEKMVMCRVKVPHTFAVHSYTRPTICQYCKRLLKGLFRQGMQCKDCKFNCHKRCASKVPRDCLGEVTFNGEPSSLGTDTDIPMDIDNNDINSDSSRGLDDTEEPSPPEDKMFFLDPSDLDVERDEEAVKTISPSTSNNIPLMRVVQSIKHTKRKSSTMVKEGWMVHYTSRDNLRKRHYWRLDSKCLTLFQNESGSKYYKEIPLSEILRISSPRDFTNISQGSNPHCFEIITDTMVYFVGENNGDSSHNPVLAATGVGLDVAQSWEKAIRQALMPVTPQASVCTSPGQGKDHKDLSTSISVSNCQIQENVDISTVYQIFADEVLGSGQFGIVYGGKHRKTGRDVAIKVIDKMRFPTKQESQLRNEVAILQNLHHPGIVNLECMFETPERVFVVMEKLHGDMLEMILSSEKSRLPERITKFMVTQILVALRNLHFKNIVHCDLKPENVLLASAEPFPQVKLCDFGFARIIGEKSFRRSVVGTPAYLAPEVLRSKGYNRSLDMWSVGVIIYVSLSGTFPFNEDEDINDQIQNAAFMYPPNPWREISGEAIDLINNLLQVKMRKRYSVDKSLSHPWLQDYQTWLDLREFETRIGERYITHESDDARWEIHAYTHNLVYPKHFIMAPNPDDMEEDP
T32 sequence (P11362 22-822): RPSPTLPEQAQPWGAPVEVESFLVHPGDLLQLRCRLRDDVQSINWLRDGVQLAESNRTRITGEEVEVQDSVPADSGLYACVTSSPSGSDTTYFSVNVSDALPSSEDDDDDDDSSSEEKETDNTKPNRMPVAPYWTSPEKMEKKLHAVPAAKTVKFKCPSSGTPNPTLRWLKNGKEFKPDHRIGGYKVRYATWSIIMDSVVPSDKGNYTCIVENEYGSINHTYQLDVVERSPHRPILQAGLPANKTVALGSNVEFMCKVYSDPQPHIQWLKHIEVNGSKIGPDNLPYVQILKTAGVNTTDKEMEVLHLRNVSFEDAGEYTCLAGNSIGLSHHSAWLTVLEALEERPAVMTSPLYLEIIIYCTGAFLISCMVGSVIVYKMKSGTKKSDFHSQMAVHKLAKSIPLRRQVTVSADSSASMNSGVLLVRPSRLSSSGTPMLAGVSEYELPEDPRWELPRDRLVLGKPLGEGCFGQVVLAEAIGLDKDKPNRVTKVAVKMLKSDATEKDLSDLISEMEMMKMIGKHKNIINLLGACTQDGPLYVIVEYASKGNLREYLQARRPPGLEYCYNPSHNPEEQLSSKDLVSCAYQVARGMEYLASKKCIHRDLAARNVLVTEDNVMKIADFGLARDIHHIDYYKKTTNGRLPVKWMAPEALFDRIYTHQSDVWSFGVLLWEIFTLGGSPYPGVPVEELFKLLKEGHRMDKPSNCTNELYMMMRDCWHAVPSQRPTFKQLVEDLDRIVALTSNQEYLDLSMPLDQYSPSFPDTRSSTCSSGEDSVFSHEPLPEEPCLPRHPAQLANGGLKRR
T38 sequence (Q9H422 whole entry): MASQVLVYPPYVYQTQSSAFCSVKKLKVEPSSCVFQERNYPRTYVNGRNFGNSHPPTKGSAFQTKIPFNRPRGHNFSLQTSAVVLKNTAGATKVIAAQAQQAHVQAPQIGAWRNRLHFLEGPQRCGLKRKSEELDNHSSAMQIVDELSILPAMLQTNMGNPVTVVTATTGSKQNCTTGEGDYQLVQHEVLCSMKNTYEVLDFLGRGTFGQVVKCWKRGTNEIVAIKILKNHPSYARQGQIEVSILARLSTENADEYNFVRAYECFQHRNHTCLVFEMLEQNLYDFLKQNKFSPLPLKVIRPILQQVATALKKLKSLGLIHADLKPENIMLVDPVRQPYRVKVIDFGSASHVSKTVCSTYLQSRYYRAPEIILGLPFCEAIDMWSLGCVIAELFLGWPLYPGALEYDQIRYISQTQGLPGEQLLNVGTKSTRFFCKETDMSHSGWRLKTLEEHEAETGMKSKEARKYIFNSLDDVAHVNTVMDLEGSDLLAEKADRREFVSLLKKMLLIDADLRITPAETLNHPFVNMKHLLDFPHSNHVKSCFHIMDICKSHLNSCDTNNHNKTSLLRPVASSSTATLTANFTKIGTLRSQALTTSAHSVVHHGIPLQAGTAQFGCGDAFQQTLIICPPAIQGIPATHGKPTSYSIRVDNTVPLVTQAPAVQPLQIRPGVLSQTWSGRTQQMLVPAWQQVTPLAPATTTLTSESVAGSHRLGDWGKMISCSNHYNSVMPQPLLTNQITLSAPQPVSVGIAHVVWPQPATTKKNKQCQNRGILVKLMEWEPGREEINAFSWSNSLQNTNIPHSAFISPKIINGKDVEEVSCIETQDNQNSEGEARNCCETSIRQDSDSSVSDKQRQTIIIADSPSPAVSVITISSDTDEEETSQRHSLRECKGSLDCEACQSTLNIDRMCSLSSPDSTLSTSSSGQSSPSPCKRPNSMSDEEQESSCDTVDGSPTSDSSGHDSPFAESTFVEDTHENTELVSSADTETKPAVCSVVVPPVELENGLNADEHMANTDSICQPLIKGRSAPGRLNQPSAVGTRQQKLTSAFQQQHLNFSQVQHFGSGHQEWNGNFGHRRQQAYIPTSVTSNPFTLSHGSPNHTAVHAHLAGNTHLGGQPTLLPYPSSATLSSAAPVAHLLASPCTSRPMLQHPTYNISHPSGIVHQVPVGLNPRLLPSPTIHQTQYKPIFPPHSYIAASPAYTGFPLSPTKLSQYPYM
T11 sequence (Q96PN8 whole entry): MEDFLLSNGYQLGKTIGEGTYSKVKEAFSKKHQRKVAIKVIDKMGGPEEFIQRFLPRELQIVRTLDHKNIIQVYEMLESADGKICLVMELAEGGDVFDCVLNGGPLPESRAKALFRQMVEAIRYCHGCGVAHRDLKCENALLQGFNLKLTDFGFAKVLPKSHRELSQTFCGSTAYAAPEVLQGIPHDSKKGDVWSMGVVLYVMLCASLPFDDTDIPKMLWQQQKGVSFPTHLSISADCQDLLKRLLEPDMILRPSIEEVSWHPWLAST
T6 sequence (O15530 whole entry): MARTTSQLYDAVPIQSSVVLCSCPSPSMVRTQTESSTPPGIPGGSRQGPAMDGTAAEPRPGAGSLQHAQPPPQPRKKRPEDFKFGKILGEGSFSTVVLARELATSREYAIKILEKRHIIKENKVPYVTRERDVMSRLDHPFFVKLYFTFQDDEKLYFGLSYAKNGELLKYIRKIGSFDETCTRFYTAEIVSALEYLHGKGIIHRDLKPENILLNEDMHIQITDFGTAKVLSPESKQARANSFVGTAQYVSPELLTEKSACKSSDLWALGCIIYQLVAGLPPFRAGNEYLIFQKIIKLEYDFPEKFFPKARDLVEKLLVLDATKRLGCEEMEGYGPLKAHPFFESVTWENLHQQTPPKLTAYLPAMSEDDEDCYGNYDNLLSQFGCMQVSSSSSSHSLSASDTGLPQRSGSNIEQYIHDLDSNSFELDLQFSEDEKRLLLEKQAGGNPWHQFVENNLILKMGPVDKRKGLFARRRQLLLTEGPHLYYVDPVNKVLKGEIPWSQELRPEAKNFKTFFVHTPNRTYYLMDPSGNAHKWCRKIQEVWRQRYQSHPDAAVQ
T26 sequence (Q8TDX7 whole entry): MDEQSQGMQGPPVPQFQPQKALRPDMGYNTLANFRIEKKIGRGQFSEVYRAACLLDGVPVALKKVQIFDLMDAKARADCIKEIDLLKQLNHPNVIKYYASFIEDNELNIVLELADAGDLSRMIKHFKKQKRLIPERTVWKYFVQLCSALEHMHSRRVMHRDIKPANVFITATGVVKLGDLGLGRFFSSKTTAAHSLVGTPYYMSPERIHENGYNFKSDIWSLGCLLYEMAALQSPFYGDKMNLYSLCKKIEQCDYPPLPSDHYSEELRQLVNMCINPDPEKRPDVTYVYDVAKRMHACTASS

`CC(C)NC(=O)COc1cccc(-c2nc(Nc3ccc4[nH]ncc4c3)c3ccccc3n2)c1` [KD025, 2-(3-(4-((1H-indazol-5-yl)amino)quinazolin-2-yl)phenoxy)-N-isopropylacetamide] gave a remaining binding at 10 µM (PIP5K1A) of 6%, a remaining binding at 10 µM [1] of 39% and a remaining binding at 10 µM (LATS2) of 48%. The remaining binding at 10 µM (CSNK1E) was 61%, the remaining binding at 10 µM (CASK) was 70% and the remaining binding at 10 µM (PDPK1) was 70%. For the same compound, the remaining binding at 10 µM (SRMS) was 70%, the remaining binding at 10 µM (MKK7) was 73% and the remaining binding at 10 µM (AURKA) was 75%. For the same compound, the remaining binding at 10 µM (VEGFR2) was 76%, the remaining binding at 10 µM (TSSK3) was 77% and the remaining binding at 10 µM (FRK) was 78%. The remaining binding at 10 µM (JNK3) was 78%, the remaining binding at 10 µM (FGR) was 82% and the remaining binding at 10 µM (MST1) was 82%. It also gave a remaining binding at 10 µM (PIK3CA(H1047L)) of 82%, a remaining binding at 10 µM (WEE2) of 82% and a remaining binding at 10 µM (PKNB(M.tuberculosis)) of 83%. It also gave a remaining binding at 10 µM (NEK9) of 85%, a remaining binding at 10 µM (MEK2) of 86% and a remaining binding at 10 µM (MAP4K4) of 87%. For the same compound, the remaining binding at 10 µM (MEK6) was 87%, the remaining binding at 10 µM (PHKG1) was 87% and the remaining binding at 10 µM (QSK) was 88%. It also gave a remaining binding at 10 µM (CSF1R-autoinhibited) of 91%, a remaining binding at 10 µM (NEK7) of 91% and a remaining binding at 10 µM (STK36) of 91%. It also gave a remaining binding at 10 µM (MARK3) of 92%, a remaining binding at 10 µM (BRSK1) of 93% and a remaining binding at 10 µM (INSR) of 94%. It also gave a remaining binding at 10 µM (PCTK2) of 94%, a remaining binding at 10 µM (FGFR1) of 95% and a remaining binding at 10 µM (HCK) of 95%. It also gave a remaining binding at 10 µM (SGK) of 95%, a remaining binding at 10 µM (DMPK) of 97% and a remaining binding at 10 µM (PKAC-beta) of 98%. It also gave a remaining binding at 10 µM (CSF1R) of 99%, a remaining binding at 10 µM (HIPK3) of 100% and a remaining binding at 10 µM (ICK) of 100%. For the same compound, the remaining binding at 10 µM (PAK7) was 100%, the remaining binding at 10 µM (PFPK5(P.falciparum)) was 100% and the remaining binding at 10 µM (PIM1) was 100%. The remaining binding at 10 µM (PRKD3) was 100% and the IC50 (ROCK1) was 24 µM.
